Test results as given in article PMC3854447, “Functional characterisation of three members of the Vitis vinifera L. carotenoid cleavage dioxygenase gene family” (BMC Plant Biology, 2013).

Target: T1, VvCCD1 (Vitis vinifera, UniProt U3M7F6)
T1 construct: gene CCD1; 1715 bp coding region from Pinotage cDNA, NdeI/PstI in pTWIN1, expressed in carotenoid-accumulating E. coli
Experiment: co-expression in carotenoid-accumulating E. coli, HS-SPME GC/MS of volatile apocarotenoid
Assay type: cell-based
Conditions: beta-carotene strain (pAC-BETA); product beta-ionone; Fe2+ and ascorbate added; room temperature, 16 h, dark

T1 sequence (U3M7F6 1-542): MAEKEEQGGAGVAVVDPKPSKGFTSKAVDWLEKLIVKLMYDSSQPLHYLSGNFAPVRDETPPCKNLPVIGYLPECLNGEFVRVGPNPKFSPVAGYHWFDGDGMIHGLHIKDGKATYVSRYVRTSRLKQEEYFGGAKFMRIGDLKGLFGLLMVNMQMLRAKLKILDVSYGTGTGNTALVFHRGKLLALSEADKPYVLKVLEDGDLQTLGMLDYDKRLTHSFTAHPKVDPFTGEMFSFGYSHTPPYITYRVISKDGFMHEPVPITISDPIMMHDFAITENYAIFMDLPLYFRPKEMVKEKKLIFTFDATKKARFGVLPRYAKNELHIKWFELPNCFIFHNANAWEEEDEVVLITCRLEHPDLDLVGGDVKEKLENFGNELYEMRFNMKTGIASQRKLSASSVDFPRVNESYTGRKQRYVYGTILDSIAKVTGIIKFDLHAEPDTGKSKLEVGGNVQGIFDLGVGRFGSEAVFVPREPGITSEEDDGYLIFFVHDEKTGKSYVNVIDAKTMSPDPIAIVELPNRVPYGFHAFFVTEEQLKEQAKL

Which “co-expression in carotenoid-accumulating E. coli, HS-SPME GC/MS of volatile apoc” value does the source give for `CC1=C(/C=C/C(C)=C/C=C/C(C)=C/C=C/C=C(C)/C=C/C=C(C)/C=C/C2=C(C)CCCC2(C)C)C(C)(C)CCC1` [β-carotene] here?
The value was “Only VvCCD1, however, catalysed β-carotene cleavage to form β-ionone”.
